The data set is described as follows: Pharmacokinetic profile after oral administration in Beagle dogs. The format is in vivo. Conditions: dog, plasma, 10.6 mg/kg, Compound A in Water for Injection. On the procedure: Macrogol Glyceride formulations were orally administered in Beagle dogs as extemporaneous suspension in PBS at a dose of 10.6 mg/kg following the protocol below, by gavage in a volume of 2 mL/kg and bulk formulation by forced introduction into the throat.
The formulations were administered to the animals which had fasted overnight (i.e. for about 16 hours) before treatment, food was allowed again 4 hours after treatment.
Macrogol Glyceride formulations (1) and (2) were orally administered as described above. A wash-out interval between the administration of formulation (1) and of formulations (2) was of at least 1 week.
6 Beagle dogs (3 males and 3 females) of about 10-13 kg of bodyweight and of age 9 to 12 months were used. Animals were weighed fasted before administration and the body weight recorded.
Blood (at least 2.5 ml) was collected from a jugular vein into heparinised tubes before and after dosing, at the following 15 times:
Blood was centrifuged within 15 min at about 2500 g at +4° C. for 10 min. Blood cells were discharged and plasma obtained was divided into 3 aliquots (at least 0.3 mL each). The plasma concentrations of Compound A (free base of Compound A, mesylate) in the unknown dog plasma samples was determined by a High Performance Liquid Chromatography/Mass Spectrometry (HPLC/MS). […]

Molecules are shown by their SMILES.

The molecule `N#CC(c1ccnc(OCc2ccc(CN3CCOCC3)cc2)n1)c1nc2ccccc2s1` (stereo not shown) [Compound A, 1,3 benzothiazol-2-yl-[2-(4-morpholin-4-ylmethyl-benzyloxy)-pyrimidin-4-yl]-acetonitrile] had a bioavailability of less than 15%.

The values are drawn from patent publication US7838522B2, “Benzothiazole formulations and use thereof” (Ares Trading S.A., priority 2004, dated 2010).
